# According to patent US9936705B2, “Biocide formulation for protecting the skin, comprising pentahydrate copper salts and heptahydrate zinc salts” (priority 2014, dated 2018):
# Where “and” joins values, the source holds several entries; their conditions need not be identical. Identical values can stand only once.
# Legend:
# Assay in all cases: Sensitivity to antimicrobial agents, Kirby-Bauer disk methodology
# Format in all cases: cell-based
# CNS = conditions: clinical bovine mastitis isolates
# Protocol: (§1) The following antimicrobial agents were assessed (Oxoid Ltd. Hampshire, England): • Amoxicillin/clavulanic acid (AMC), • Trimethropin/sulfamethoxazole (SXT), • Cefotaxime (CTX), • Gentamicin (GN) and • Neomycin (NE).
# (§2) The bacterial specimens were analyzed according to the Kirby-Bauer disk methodology following the recommendations provided by the guidelines of the Clinical Laboratory Standards Institute (CLSI 2012b) and the BSAC standard (Andrews and Trial 2008).
# (§3) The microorganisms were incubated in Mueller Hinton agar plates at 35° C. for 18-24 hours in aerobics atmosphere. As quality control E. coli (ATCC 25922) and Staphylococcus aureus (25923) were used. The CLSI cut-off points were used to interpret the susceptibility of all microbial agents. For the determination of the cut-off point value for neomycin (NE), the BSAC standard was applied.
# E. coli = conditions: Central Region, clinical bovine mastitis isolates
# Protocol: as §1, §2, §3
# S. uberis = conditions: Southern Region, clinical bovine mastitis isolates
# Protocol: as §1, §2, §3
# S. aureus = conditions: Southern Region, clinical bovine mastitis isolates
# Protocol: as §1, §2, §3
Compound,Resistant (%) (CNS; Central Region),Resistant N° (CNS; Central Region),Resistant (%) (CNS; Southern Region),Resistant N° (CNS; Southern Region),Resistant (%) (E. coli),Resistant N° (E. coli),Resistant (%) (S. uberis),Resistant N° (S. uberis),Resistant (%) (S. uberis; listed as CTK),Resistant (%) (S. aureus),Resistant N° (S. aureus)
"CO/N=C(\C(=O)N[C@@H]1C(=O)N2C(C(=O)O)=C(COC(C)=O)CS[C@H]12)c1csc(N)n1 [CTX, Cefotaxime]",0.0%,0,5.9%,1,15.4%,2,23.8%,5,24%,3.6%,1
"NC[C@@H]1O[C@H](O[C@H]2[C@@H](O)[C@H](O[C@@H]3[C@@H](O)[C@H](N)C[C@H](N)[C@H]3O[C@H]3O[C@H](CN)[C@@H](O)[C@H](O)[C@H]3N)O[C@@H]2CO)[C@H](N)[C@@H](O)[C@@H]1O [Ne, Neomycin]",15.4%,2,5.9%,1,54% and 53.8%,7,52% and 52.4%,11,–,21.4%,6
Amoxicillin/clavulanic acid [AMC],0.0%,0,0.0%,0,23.0%,3,0.0%,0,–,7.1%,2
Gentamicin [GN],0.0%,0,0.0%,0,15.4%,2,43% and 42.9%,9,–,0.0%,0
Trimethropin/sulfamethoxazole [SXT],0.0%,0,0.0%,0,15.4%,2,0.0%,0,–,3.6%,1
